The test system of the test is corneal surface after BAC-induced toxicity. Description: In vivo fluorescence imaging of the cornea after BAC-induced corneal toxicity, compared with lissamine green staining. On the set-up: species or system rat. As to conditions: 0.1% and 0.2% BAC twice daily for 7 days. The protocol:
Adult Wistar rats were given topical instillation of 0.2, 0.1 and 0.02% BAC in 0.9% balanced salt solution (BSS) twice daily for 7 days. External ocular examination was performed and lissamine green staining was used to evaluate the corneal damage prior to and after experiments. One hour after topical Zn-DPA 480 administration, convention light and fluorescence images were taken on animals.
There was no remarkable change on the cornea after administration of BSS. Results are illustrated in FIG. 3.

Here are results for one compound from patent US20150367004A1, “COMPOSITIONS AND METHODS OF DIAGNOSING OCULAR DISEASES” (MOLECULAR TARGETING TECHNOLOGIES, INC., priority 2012, published 2015).

Molecules are shown by their SMILES.

`CN(C)c1ccc(C(=C2C=CC(=[N+](C)C)C=C2)c2c(O)c(S(=O)(=O)[O-])cc3cc(S(=O)(=O)[O-])ccc23)cc1.[Na+]` [lissamine green]: the Corneal staining result is reported as “positive lissamine green staining”.
